In patent US9073974B2, “RGD-containing cyclic peptides” (The Regents of the University of California, priority 2009, dated 2015):
Numbered stars: 1 amine (or outer) side, 2 acyl side, 3 side chain; on linkers, the order of the positions; unused ones are H or OH. Bridge positions count the residues as written; N and C are the ends. Square brackets hold non-standard residues; d marks the D form. Peptide text beside a SMILES is read from it. * marks the point of attachment. Pro(5R-Ph) = O=C(O)[C@@H]1CC[C@H](c2ccccc2)N1; Benzoyl(3,5-(OH)2) = O=C(c1cc(O)cc(O)c1)*; Benzoyl(4-Ph) = O=C(c1ccc(-c2ccccc2)cc1)*; Phenylacetyl(4-Cl) = O=C(Cc1ccc(Cl)cc1)*; NH(CH2CH2O)2CH2CH2NH2 = NCCOCCOCCN*; dBta = N[C@H](Cc1csc2ccccc12)C(=O)O; dCit = NC(=O)NCCC[C@@H](N)C(=O)O; dPen = CC(C)(S)[C@@H](N)C(=O)O; Agp = N=C(N)NC[C@H](N)C(=O)O; Suc = O=C(CCC(=O)[*:2])[*:1]; Isobutyryl = CC(C)C(=O)*; X4 = O=C(c1ccc(Br)o1)*; X3 = Cc1nc(C(=O)*)cs1; βAla = NCCC(=O)O; Sar = CNCC(=O)O

Target: αvβ3 integrin (Homo sapiens, UniProt P05106+P06756)
Assay: Inhibition of biotinylated LXW7 binding to αvβ3-K562 cells (flow cytometry)
Set-up: expressed in transfected cells; host or cells: K562 (gift of Dr. Yoshikazu Takada, UC Davis)
Details: LXW9-92: inhibiting the binding of biotinylated LXW7 against αvβ3-K562 cells
Experimental: The apparent IC50 were calculated using Graph Prism software (≦www.graphpad.com≧).
The samples were analyzed with Coulter XL-MCL flow cytometry. The histogram and mean fluorescence intensity (MFI) were determined. The apparent Kd, IC50 were calculated using Graph Prism software (≦www.graphpad.com≧).

Chain of αvβ3 integrin (P06756 31-889 limits assumed): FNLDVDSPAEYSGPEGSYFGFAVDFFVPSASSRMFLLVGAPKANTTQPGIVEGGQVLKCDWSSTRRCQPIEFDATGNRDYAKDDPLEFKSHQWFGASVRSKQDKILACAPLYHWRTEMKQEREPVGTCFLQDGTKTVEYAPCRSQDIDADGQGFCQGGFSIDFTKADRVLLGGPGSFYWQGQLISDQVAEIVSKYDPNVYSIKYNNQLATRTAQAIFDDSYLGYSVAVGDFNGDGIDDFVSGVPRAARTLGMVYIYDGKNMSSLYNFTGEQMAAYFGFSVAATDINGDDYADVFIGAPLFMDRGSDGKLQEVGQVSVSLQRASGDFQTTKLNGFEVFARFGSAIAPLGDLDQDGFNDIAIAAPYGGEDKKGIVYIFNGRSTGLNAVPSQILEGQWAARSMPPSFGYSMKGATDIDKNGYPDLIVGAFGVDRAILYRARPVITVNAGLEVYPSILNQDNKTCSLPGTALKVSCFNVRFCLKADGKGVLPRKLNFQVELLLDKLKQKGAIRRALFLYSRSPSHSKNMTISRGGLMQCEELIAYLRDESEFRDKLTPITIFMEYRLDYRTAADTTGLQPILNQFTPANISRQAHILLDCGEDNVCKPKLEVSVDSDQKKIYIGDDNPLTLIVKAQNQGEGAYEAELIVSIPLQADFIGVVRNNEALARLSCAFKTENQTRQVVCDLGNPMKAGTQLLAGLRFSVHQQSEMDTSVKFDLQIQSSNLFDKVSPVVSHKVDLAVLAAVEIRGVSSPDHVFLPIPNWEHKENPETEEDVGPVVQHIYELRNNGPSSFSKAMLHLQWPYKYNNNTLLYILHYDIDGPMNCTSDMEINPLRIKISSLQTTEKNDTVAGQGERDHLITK
Chain of αvβ3 integrin (P06756 891-1048 partner limits assumed): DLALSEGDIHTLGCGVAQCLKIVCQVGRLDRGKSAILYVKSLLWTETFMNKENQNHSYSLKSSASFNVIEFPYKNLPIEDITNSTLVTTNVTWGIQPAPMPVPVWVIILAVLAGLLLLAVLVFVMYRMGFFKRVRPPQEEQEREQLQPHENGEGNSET
Chain of αvβ3 integrin (P05106 27-788): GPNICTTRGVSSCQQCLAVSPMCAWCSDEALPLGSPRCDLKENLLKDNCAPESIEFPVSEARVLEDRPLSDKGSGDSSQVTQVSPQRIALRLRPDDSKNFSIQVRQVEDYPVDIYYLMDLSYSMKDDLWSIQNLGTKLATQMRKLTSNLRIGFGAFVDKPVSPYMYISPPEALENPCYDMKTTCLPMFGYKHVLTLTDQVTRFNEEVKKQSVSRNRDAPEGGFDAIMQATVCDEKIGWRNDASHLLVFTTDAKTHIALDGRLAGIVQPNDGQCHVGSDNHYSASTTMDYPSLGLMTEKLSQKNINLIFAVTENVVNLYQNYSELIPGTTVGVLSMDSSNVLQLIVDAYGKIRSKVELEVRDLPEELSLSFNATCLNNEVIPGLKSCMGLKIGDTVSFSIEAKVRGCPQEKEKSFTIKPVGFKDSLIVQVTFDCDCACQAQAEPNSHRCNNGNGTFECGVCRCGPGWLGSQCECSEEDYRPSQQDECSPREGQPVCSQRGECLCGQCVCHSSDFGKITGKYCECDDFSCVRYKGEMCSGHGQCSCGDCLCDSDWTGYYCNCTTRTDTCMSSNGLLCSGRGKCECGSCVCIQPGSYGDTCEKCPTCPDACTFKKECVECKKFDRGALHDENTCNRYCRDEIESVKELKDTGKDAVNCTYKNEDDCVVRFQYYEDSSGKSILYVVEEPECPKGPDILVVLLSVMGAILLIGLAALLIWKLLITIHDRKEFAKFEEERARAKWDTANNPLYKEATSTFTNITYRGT

N=C(N)NCCC[C@@H]1NC(=O)CNC(=O)[C@H](N)CSSC[C@H](C(N)=O)NC(=O)[C@@H](Cc2ccsc2)NC(=O)[C@@H](CC(=O)O)NC(=O)[C@H](CC(=O)O)NC(=O)CNC1=O [LXW66, cGRGDd-D3Thi-c]
IC50 (class symbols): < 1000 nM

N=C(N)NCCC[C@@H]1NC(=O)CNC(=O)[C@H](N)CSSC[C@@H](C(N)=O)NC(=O)[C@@H](CC(=O)O)NC(=O)[C@@H](CO)NC(=O)[C@H](CC(=O)O)NC(=O)CNC1=O [LXW62, cGRGDsdC] (H-[dC]GRGD[dS][dD]C-NH2; disulfide 1-8)
IC50 (class symbols): > 10000 nM

CC(C)[C@H]1NC(=O)[C@@H](CC(=O)O)NC(=O)[C@H](CC(=O)O)NC(=O)CNC(=O)[C@H](CCCNC(=N)N)NC(=O)CNC(=O)[C@H](N)C(C)(C)SSC(C)(C)[C@H](C(N)=O)NC1=O [LXW19, DPen-GRGDdv-DPen] (H-[dPen]GRGD[dD][dV][dPen]-NH2; disulfide 1-8)
IC50 (class symbols): 1000 to 10000 nM

N=C(N)NCCC[C@@H]1NC(=O)CNC(=O)[C@H](N)CSSC[C@H](C(N)=O)NC(=O)[C@@H]2CC[C@H](c3ccccc3)N2C(=O)[C@@H](CCCNC(N)=O)NC(=O)[C@H](CC(=O)O)NC(=O)CNC1=O [LXW70, cGRGD-DCit-Ppca-c] (H-[dC]GRGD[dCit][Pro(5R-Ph)][dC]-NH2; disulfide 1-8)
IC50 (class symbols): > 10000 nM

Cc1nc(C(=O)N[C@@H]2CSSC[C@H](C(N)=O)NC(=O)[C@@H](C(C)C)NC(=O)[C@@H](CC(=O)O)NC(=O)[C@H](CC(=O)O)NC(=O)CNC(=O)[C@H](CCCNC(=N)N)NC(=O)CNC2=O)cs1 [LXW86, 2-Methylthiazole-4-carbonyl-cGRGDdvc] (X3-[dC]GRGD[dD][dV][dC]-NH2; disulfide 1-8)
IC50 (class symbols): < 1000 nM

CC(C)[C@H]1NC(=O)[C@@H](CC(=O)O)NC(=O)[C@H](CC(=O)O)NC(=O)CNC(=O)[C@H](CCCNC(=N)N)NC(=O)CNC(=O)[C@H](NC(=O)Cc2ccc(Cl)cc2)CSSC[C@H](C(N)=O)NC1=O [LXW81, p-chlorophenyl acetyl-cGRGDdvc] ({Phenylacetyl(4-Cl)}-[dC]GRGD[dD][dV][dC]-NH2; disulfide 1-8)
IC50 (class symbols): 1000 to 10000 nM

C#CC[C@H]1NC(=O)[C@@H](CC(=O)O)NC(=O)[C@H](CC(=O)O)NC(=O)CNC(=O)[C@H](CCCNC(=N)N)NC(=O)CN(C)C(=O)[C@@H](N)CSSC[C@@H](C(N)=O)NC1=O [LXW35, C-Sar-RGDd-DPra-C]
IC50 (class symbols): > 10000 nM

CC(C)[C@H]1NC(=O)[C@@H](CC(=O)O)NC(=O)[C@H](CC(=O)O)NC(=O)CNC(=O)[C@H](CCCNC(=N)N)NC(=O)CNC(=O)[C@H](NC(=O)c2ccc(Br)o2)CSSC[C@H](C(N)=O)NC1=O [LXW90, 5-bromo-2-furoyl-cGRGDdvc] (X4-[dC]GRGD[dD][dV][dC]-NH2; disulfide 1-8)
IC50 (class symbols): 1000 to 10000 nM

CC(C)[C@H]1NC(=O)[C@@H](CC(=O)O)NC(=O)[C@H](CC(=O)O)NC(=O)CNC(=O)[C@H](CCCNC(=N)N)NC(=O)CNC(=O)[C@H](NC(=O)CCC(=O)NCCOCCOCCN)CSSC[C@H](C(N)=O)NC1=O [LXW57, (Ebes)-cGRGDdvc] ({NH(CH2CH2O)2CH2CH2NH2-Suc}-[dC]GRGD[dD][dV][dC]-NH2; disulfide 1-8)
IC50 (class symbols): < 1000 nM

CC(=O)N[C@@H]1CSSC[C@H](C(N)=O)NC(=O)[C@@H](C(C)C)NC(=O)[C@@H](CC(=O)O)NC(=O)[C@H](CC(=O)O)NC(=O)CNC(=O)[C@H](CCCNC(=N)N)NC(=O)CNC1=O [LXW12, Acetyl-cGRGDdvc] (Ac-[dC]GRGD[dD][dV][dC]-NH2; disulfide 1-8)
IC50 (class symbols): < 1000 nM

CC[C@@H](C)[C@H]1NC(=O)[C@@H](CC(=O)O)NC(=O)[C@H](CC(=O)O)NC(=O)CNC(=O)[C@H](CCCNC(=N)N)NC(=O)CNC(=O)[C@H](N)CSSC[C@H](C(N)=O)NC1=O [LXW26, cGRGDdic] (H-[dC]GRGD[dD][dI][dC]-NH2; disulfide 1-8)
IC50 (class symbols): 1000 to 10000 nM

CC(C)[C@H]1NC(=O)[C@@H](CC(=O)O)NC(=O)[C@H](CC(=O)O)NC(=O)CNC(=O)[C@H](CCCNC(=N)N)NC(=O)CNC(=O)[C@@H](N)CSSC[C@H](C(N)=O)NC1=O [LXW9, CGRGDdvc] (H-CGRGD[dD][dV][dC]-NH2; disulfide 1-8)
IC50 (class symbols): 1000 to 10000 nM

C=CC[C@H]1NC(=O)[C@@H](CC(=O)O)NC(=O)[C@H](CC(=O)O)NC(=O)CNC(=O)[C@H](CCCNC(=N)N)NC(=O)CNC(=O)[C@H](N)CSSC[C@H](C(N)=O)NC1=O [LWX16, cGRGDd-DAgl-c]
IC50 (class symbols): 1000 to 10000 nM

CC(C)[C@H]1NC(=O)[C@@H](CC(=O)O)NC(=O)[C@H](CC(=O)O)NC(=O)CN(C)C(=O)[C@H](CCCNC(=N)N)NC(=O)CNC(=O)[C@H](N)CSSC[C@H](C(N)=O)NC1=O [LXW54, cGR-Sar-Ddvc] (H-[dC]GR[Sar]D[dD][dV][dC]-NH2; disulfide 1-8)
IC50 (LXW7 as internal reference): > 20000 nM

CC(C)[C@H]1NC(=O)[C@@H](CC(=O)O)NC(=O)[C@H](CC(=O)O)NC(=O)CNC(=O)[C@H](CCCNC(=N)N)NC(=O)CNC(=O)[C@H](NC(=O)c2ccc(-c3ccccc3)cc2)CSSC[C@H](C(N)=O)NC1=O [LXW84, biphenyl-4-carbonyl-cGRGDdvc] ({Benzoyl(4-Ph)}-[dC]GRGD[dD][dV][dC]-NH2; disulfide 1-8)
IC50 (class symbols): < 1000 nM

CC(C)[C@@H]1C(=O)N[C@@H](C(N)=O)CSSC[C@@H](N)C(=O)NCC(=O)N[C@@H](CCCNC(=N)N)C(=O)NCC(=O)N[C@@H](CC(=O)O)C(=O)N[C@H](CC(=O)O)C(=O)N1C [LXW22, cGRGDd-D(NMe)Val-c]
IC50 (class symbols): < 1000 nM

N=C(N)NCCC[C@@H]1NC(=O)CNC(=O)[C@@H](N)CSSC[C@H](C(N)=O)NC(=O)[C@@H]2CC[C@H](c3ccccc3)N2C(=O)[C@@H](CCC(=O)O)NC(=O)[C@H](CC(=O)O)NC(=O)CNC1=O [LXW45, CGRGDe-Ppca-c] (H-CGRGD[dE][Pro(5R-Ph)][dC]-NH2; disulfide 1-8)
IC50 (LXW7 as internal reference): > 20000 nM

N=C(N)NCCC[C@@H]1NC(=O)CNC(=O)[C@H](N)CSSC[C@H](C(N)=O)NC(=O)[C@@H](Cc2ccc3ccccc3c2)NC(=O)[C@@H](CC(=O)O)NC(=O)[C@H](CC(=O)O)NC(=O)CNC1=O [LXW65, cGRGDd-DNal2-c]
IC50 (class symbols): < 1000 nM

CC(C)[C@H]1NC(=O)[C@@H](CC(=O)O)NC(=O)[C@H](CC(=O)O)NC(=O)CNC(=O)[C@H](CCCNC(=N)N)NC(=O)CNC(=O)[C@@H](N)CSSC[C@@H](C(N)=O)NC1=O [LXW11, CGRGDdvC] (H-CGRGD[dD][dV]C-NH2; disulfide 1-8)
IC50 (LXW7 as internal reference): > 20000 nM

CC(C)[C@H]1NC(=O)[C@@H](CC(=O)O)NC(=O)[C@H](CCC(=O)O)NC(=O)CNC(=O)[C@H](CNC(=N)N)NC(=O)CNC(=O)[C@H](N)CSSC[C@H](C(N)=O)NC1=O [LXW59, cG-Agp-GEdvc] (H-[dC]G[Agp]GE[dD][dV][dC]-NH2; disulfide 1-8)
IC50 (LXW7 as internal reference): > 20000 nM

CC(C)[C@H]1NC(=O)[C@@H](CC(=O)O)NC(=O)[C@H](CC(=O)O)NC(=O)CNC(=O)[C@H](CCCNC(=N)N)NC(=O)CNC(=O)[C@H](N)CSSC[C@@H](C(N)=O)NC1=O [LXW10, cGRGDdvC] (H-[dC]GRGD[dD][dV]C-NH2; disulfide 1-8)
IC50 (class symbols): 1000 to 10000 nM

C#CC[C@H]1NC(=O)[C@@H](CC(=O)O)NC(=O)[C@H](CC(=O)O)NC(=O)CNC(=O)[C@H](CCCNC(=N)N)NC(=O)CNC(=O)[C@H](N)CSSC[C@@H](C(N)=O)NC1=O [LXW40, cGRGDd-DPra-C]
IC50 (class symbols): 1000 to 10000 nM

CC(C)[C@H]1NC(=O)[C@@H](CC(=O)O)NC(=O)[C@H](CC(=O)O)NC(=O)CNC(=O)[C@H](CCCNC(=N)N)NC(=O)CN(C)C(=O)[C@H](N)CSSC[C@H](C(N)=O)NC1=O [LXW14, c-Sar-RGDdvc] (H-[dC][Sar]RGD[dD][dV][dC]-NH2; disulfide 1-8)
IC50 (class symbols): 1000 to 10000 nM

N=C(N)NCCC[C@@H]1NC(=O)CNC(=O)[C@H](N)CSSC[C@H](C(N)=O)NC(=O)[C@@H](Cc2csc3ccccc23)NC(=O)[C@@H](CCCNC(N)=O)NC(=O)[C@H](CC(=O)O)NC(=O)CNC1=O [LXW73, cGRGD-DCit-DBta-c] (H-[dC]GRGD[dCit][dBta][dC]-NH2; disulfide 1-8)
IC50 (class symbols): 1000 to 10000 nM

N=C(N)NCCC[C@@H]1NC(=O)CNC(=O)[C@H](N)CSSC[C@H](C(N)=O)NC(=O)[C@@H](Cc2cscn2)NC(=O)[C@@H](CC(=O)O)NC(=O)[C@H](CC(=O)O)NC(=O)CNC1=O [LXW69, cGRGDd-DTha-c]
IC50 (class symbols): 1000 to 10000 nM

C#CC[C@H]1NC(=O)[C@@H](CC(=O)O)NC(=O)[C@H](CC(=O)O)NC(=O)CNC(=O)[C@H](CCCNC(=N)N)NC(=O)CNC(=O)[C@H](N)CSSC[C@H](C(N)=O)NC1=O [LWX17, cGRGDd-DPra-c]
IC50 (class symbols): 1000 to 10000 nM

CC(C)[C@H]1NC(=O)[C@@H](CC(=O)O)NC(=O)[C@H](CC(=O)O)NC(=O)CNC(=O)[C@H](CCCNC(=N)N)NC(=O)CNC(=O)[C@H](NC(=O)c2cc(O)cc(O)c2)CSSC[C@H](C(N)=O)NC1=O [LXW83, 3,5-dihydroxy beznoyl-cGRGDdvc] ({Benzoyl(3,5-(OH)2)}-[dC]GRGD[dD][dV][dC]-NH2; disulfide 1-8)
IC50 (class symbols): < 1000 nM

CC(C)C(=O)N[C@@H]1CSSC[C@H](C(N)=O)NC(=O)[C@@H](C(C)C)NC(=O)[C@@H](CC(=O)O)NC(=O)[C@H](CC(=O)O)NC(=O)CNC(=O)[C@H](CCCNC(=N)N)NC(=O)CNC1=O [LXW76, isobutyryl-cGRGDdvc] (Isobutyryl-[dC]GRGD[dD][dV][dC]-NH2; disulfide 1-8)
IC50 (class symbols): < 1000 nM

CC(C)[C@H]1NC(=O)[C@@H](CC(=O)O)NC(=O)[C@H](CC(=O)O)NC(=O)CNC(=O)[C@H](CCCNC(=N)N)NC(=O)CNC(=O)[C@H](N)C(C)(C)SSC[C@H](C(N)=O)NC1=O [LXW20, DPen-GRGDdvc] (H-[dPen]GRGD[dD][dV][dC]-NH2; disulfide 1-8)
IC50 (class symbols): 1000 to 10000 nM

CC(C)[C@H]1NC(=O)[C@@H](CC(=O)O)NC(=O)[C@H](CC(=O)O)NC(=O)CNC(=O)[C@H](CCCNC(=N)N)NC(=O)CNC(=O)[C@H](NC(=O)CCN)CSSC[C@H](C(N)=O)NC1=O [LXW56, 3-amino propanoyl-cGRGDdvc] (H-[βAla][dC]GRGD[dD][dV][dC]-NH2; disulfide 2-9)
IC50 (class symbols): < 1000 nM
